Assay results from US9216999B2, “Substituted pyrrolo[2,3-h][1,6]naphthyridines and compositions thereof as JAK inhibitors” (priority 2011, dated 2015).
Like-named read-outs stand apart in the source and are kept apart here.

Legend:
Type in all cases: biochemical
[1] = target: JAK2 (Homo sapiens (Human), UniProt O60674); assay: Enzyme assay (Assay Example^a 1), JAK2
[2] = target: Tyk2 (Homo sapiens (Human), UniProt P29597); assay: Enzyme assay (Assay Example^a 1), Tyk2; details: ATP 100 μM
[3] = target: JAK3 (Homo sapiens (Human), UniProt P52333); assay: Enzyme assay (Assay Example^a 1), JAK3
Chain of JAK3 (P52333 whole entry): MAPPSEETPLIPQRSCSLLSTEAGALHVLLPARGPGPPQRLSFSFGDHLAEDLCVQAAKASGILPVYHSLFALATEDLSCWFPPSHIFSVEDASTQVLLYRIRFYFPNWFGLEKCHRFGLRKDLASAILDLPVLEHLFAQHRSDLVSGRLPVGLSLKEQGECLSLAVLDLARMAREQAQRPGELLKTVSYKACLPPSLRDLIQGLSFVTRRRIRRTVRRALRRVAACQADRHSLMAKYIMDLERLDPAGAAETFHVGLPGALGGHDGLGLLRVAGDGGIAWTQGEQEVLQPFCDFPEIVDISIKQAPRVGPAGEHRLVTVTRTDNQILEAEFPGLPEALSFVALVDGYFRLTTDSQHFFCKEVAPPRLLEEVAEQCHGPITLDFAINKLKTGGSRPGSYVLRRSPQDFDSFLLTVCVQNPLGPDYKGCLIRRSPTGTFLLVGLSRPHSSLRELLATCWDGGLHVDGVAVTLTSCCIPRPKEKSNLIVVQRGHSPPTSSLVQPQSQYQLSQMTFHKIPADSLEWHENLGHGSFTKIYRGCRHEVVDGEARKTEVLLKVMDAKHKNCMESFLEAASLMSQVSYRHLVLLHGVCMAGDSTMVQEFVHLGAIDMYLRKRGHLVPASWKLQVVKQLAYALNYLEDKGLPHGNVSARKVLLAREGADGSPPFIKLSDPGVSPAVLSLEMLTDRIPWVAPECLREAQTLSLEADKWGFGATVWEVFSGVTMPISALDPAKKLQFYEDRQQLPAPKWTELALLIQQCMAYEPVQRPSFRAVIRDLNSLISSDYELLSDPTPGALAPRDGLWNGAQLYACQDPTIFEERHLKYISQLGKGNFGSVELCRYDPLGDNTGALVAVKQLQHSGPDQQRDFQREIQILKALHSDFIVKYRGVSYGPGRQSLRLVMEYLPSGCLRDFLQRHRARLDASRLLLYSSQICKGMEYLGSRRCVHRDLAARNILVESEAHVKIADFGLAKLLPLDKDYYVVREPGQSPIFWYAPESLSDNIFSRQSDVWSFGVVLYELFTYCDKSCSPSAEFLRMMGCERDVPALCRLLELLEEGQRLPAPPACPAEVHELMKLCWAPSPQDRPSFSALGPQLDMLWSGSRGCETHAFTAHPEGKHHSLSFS

[4] = target: JAK1 (Homo sapiens (Human), UniProt P23458); assay: Enzyme assay (Assay Example^a 1), JAK1; details: ATP 100 μM

Chain of Tyk2 (P29597 whole entry): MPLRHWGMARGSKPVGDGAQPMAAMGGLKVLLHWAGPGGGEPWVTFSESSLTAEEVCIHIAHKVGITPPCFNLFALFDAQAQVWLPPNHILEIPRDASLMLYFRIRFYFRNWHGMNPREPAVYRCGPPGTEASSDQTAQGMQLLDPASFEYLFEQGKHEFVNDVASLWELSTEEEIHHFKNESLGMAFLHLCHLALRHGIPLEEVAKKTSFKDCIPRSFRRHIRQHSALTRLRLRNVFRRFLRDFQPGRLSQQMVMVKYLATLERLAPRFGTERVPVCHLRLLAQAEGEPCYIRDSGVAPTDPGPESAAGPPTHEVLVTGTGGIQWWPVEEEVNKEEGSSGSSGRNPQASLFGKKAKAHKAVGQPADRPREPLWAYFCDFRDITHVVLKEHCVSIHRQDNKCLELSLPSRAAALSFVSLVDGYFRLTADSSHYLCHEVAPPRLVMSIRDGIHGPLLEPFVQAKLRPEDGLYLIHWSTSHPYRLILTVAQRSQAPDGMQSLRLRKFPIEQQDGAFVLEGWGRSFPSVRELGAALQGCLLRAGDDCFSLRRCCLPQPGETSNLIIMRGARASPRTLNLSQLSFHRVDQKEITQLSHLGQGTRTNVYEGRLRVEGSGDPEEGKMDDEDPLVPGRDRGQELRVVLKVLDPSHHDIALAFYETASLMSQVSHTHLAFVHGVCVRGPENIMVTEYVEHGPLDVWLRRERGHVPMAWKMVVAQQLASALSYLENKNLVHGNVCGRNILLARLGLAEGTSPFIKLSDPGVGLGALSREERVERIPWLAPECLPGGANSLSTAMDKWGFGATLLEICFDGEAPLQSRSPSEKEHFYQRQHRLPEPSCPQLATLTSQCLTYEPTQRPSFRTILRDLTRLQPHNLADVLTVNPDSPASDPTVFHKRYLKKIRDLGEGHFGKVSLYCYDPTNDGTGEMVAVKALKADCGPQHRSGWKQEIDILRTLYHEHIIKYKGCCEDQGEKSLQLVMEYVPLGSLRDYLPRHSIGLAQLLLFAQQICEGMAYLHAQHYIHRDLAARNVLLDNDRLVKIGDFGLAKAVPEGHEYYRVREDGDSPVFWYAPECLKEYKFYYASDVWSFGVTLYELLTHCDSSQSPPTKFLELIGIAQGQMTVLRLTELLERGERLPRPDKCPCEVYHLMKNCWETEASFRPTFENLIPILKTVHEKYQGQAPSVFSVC

Compound | IC50 ([1]; ATP 100 μM) [µM] | IC50 [2] [µM] | IC50 ([3]; ATP 100 μM) [µM] | IC50 [4] [µM] | IC50 ([1]; ATP 100 μM, Table^a 154) [µM] | IC50 ([2]; Table^a 154) [µM] | IC50 ([3]; ATP 100 μM, Table^a 154) [µM] | IC50 ([4]; Table^a 154) [µM] | IC50 [1] [µM] | IC50 [3] [µM]
OC(CN[C@H]1CC[C@H](c2nnn3cnc4[nH]ccc4c23)CC1)(c1cccnc1)C(F)(F)F (stereo partly drawn) [385b, 3-{[trans-4-(7H-pyrrolo[3,2-e][1,2,3]triazolo[1,5-c]pyrimidin-1-yl)cyclohexyl]amino}-1,1,1-trifluoro-2-(pyridin-3-yl)propan-2-ol] | 0.031 | 0.21 | 0.18 | 0.0019 |  |  |  |  |  | 
COCCN(CCOC)C[C@H]1CC[C@H](c2nnn3cnc4[nH]ccc4c23)CC1 [compound 326, N-{[trans-4-(7H-pyrrolo[3,2-e][1,2,3]triazolo[1,5-c]pyrimidin-1-yl)cyclohexyl]methyl}-2-methoxy-N-(2-methoxyethyl)ethanamine] | 0.31 | > 1 | > 1 | 0.048 |  |  |  |  |  | 
N#Cc1cc(CN2CCC(c3nnn4cnc5[nH]ccc5c34)CC2)ccc1C(F)(F)F [compound 243, 5-{[4-(7H-pyrrolo[3,2-e][1,2,3]triazolo[1,5-c]pyrimidin-1-yl)piperidin-1-yl]methyl}-2-(trifluoromethyl)benzonitrile] | 0.29 | > 1 | > 1 | 0.044 |  |  |  |  |  | 
N#CC[C@H]1CC[C@@H](c2nnn3cnc4[nH]ccc4c23)CC1 [435a, 2-[cis-4-(7H-Pyrrolo[3,2-e][1,2,3]triazolo[1,5-c]pyrimidin-1-yl)cyclohexyl]acetonitrile] | 0.021 | 0.17 | 0.72 | 0.0054 |  |  |  |  |  | 
FC(F)(F)CN(CC1CC1)C[C@H]1CC[C@H](c2nnn3cnc4[nH]ccc4c23)CC1 [compound 415, N-{[trans-4-(7H-pyrrolo[3,2-e][1,2,3]triazolo[1,5-c]pyrimidin-1-yl)cyclohexyl]methyl}-N-(cyclopropylmethyl)-2,2,2-trifluoroethanamine] | 0.095 | > 1 | > 1 | 0.03 |  |  |  |  |  | 
Cc1cnc(CNC[C@H]2CC[C@H](c3nnn4cnc5[nH]ccc5c34)CC2)cn1 [compound 183, 1-[trans-4-(7H-pyrrolo[3,2-e][1,2,3]triazolo[1,5-c]pyrimidin-1-yl)cyclohexyl]-N-[(5-methylpyrazin-2-yl)methyl]methanamine] |  |  |  |  | 0.055 | 0.041 | 0.8 | 0.0061 |  | 
CC(C)(C)OC(=O)N1CCC(CNC[C@H]2CC[C@H](c3nnn4cnc5[nH]ccc5c34)CC2)CC1 [compound 335, tert-butyl 4-[({[trans-4-(7H-pyrrolo[3,2-e][1,2,3]triazolo[1,5-c]pyrimidin-1-yl)cyclohexyl]methyl}amino)methyl]piperidine-1-carboxylate] | 0.29 | 0.71 | > 1 | 0.029 |  |  |  |  |  | 
Cc1ccc(CNC[C@H]2CC[C@H](c3nnn4cnc5[nH]ccc5c34)CC2)o1 [compound 182, 1-[trans-4-(7H-pyrrolo[3,2-e][1,2,3]triazolo[1,5-c]pyrimidin-1-yl)cyclohexyl]-N-[(5-methylfuran-2-yl)methyl]methanamine] |  |  |  |  | 0.039 | 0.016 | 0.28 | 0.0054 |  | 
Fc1ccc(CN[C@H]2CC[C@H](c3nnn4cnc5[nH]ccc5c34)CC2)cc1 [195b, trans-N-(4-fluorobenzyl)-4-(7H-pyrrolo[3,2-e][1,2,3]triazolo[1,5-c]pyrimidin-1-yl)cyclohexanamine] |  |  |  |  | 0.042 | 0.12 | 0.56 | 0.007 |  | 
FC(F)(F)C(F)(F)CN[C@H]1CC[C@@H](c2nnn3cnc4[nH]ccc4c23)CC1 [383a, cis-N-(2,2,3,3,3-pentafluoropropyl)-4-(7H-pyrrolo[3,2-e][1,2,3]triazolo[1,5-c]pyrimidin-1-yl)cyclohexanamine] | 0.37 | > 1 | > 1 | 0.09 |  |  |  |  |  | 
C=C1CCC(c2nnn3cnc4[nH]ccc4c23)CC1 [compound 433, 1-(4-Methylenecyclohexyl)-7H-pyrrolo[3,2-e][1,2,3]triazolo[1,5-c]pyrimidine] | 0.027 | 0.12 | 0.71 | 0.0081 |  |  |  |  |  | 
N#CCC(=O)N(CC#N)C[C@H]1CC[C@H](c2nnn3cnc4[nH]ccc4c23)CC1 [compound 408, N-{[trans-4-(7H-pyrrolo[3,2-e][1,2,3]triazolo[1,5-c]pyrimidin-1-yl)cyclohexyl]methyl}-2-cyano-N-(cyanomethyl)acetamide] | 0.013 | 0.31 | 0.22 | 0.0052 |  |  |  |  |  | 
N#C/C=C/[C@H]1CC[C@H](c2nnn3cnc4[nH]ccc4c23)CC1 [compound 440, (E)-3-[trans-4-(7H-Pyrrolo[3,2-e][1,2,3]triazolo[1,5-c]pyrimidin-1-yl)cyclohexyl]acrylonitrile] | 0.031 | 0.14 | 0.54 | 0.0053 |  |  |  |  |  | 
CC(C)(C)OC(=O)N1CC[C@H](NC[C@H]2CC[C@H](c3nnn4cnc5[nH]ccc5c34)CC2)C1 [compound 337, (S)-tert-butyl 3-({[trans-4-(7H-pyrrolo[3,2-e][1,2,3]triazolo[1,5-c]pyrimidin-1-yl)cyclohexyl]methyl}amino)pyrrolidine-1-carboxylate] | 0.34 | 0.51 | > 1 | 0.029 |  |  |  |  |  | 
O[C@H]1CC[C@H](NC[C@H]2CC[C@H](c3nnn4cnc5[nH]ccc5c34)CC2)CC1 [compound 305, trans-4-({[trans-4-(7H-pyrrolo[3,2-e][1,2,3]triazolo[1,5-c]pyrimidin-1-yl)cyclohexyl]methyl}amino)cyclohexanol] | 0.29 | > 1 | > 1 | 0.046 |  |  |  |  |  | 
N#CC1CCN(C[C@H]2CC[C@H](c3nnn4cnc5[nH]ccc5c34)CC2)CC1 [compound 89] |  |  |  |  | 0.2 | 0.61 | > 1 | 0.025 |  | 
FC(F)(Br)CN[C@H]1CC[C@@H](c2nnn3cnc4[nH]ccc4c23)CC1 [382a, cis-N-(2-bromo-2,2-difluoroethyl)-4-(7H-pyrrolo[3,2-e][1,2,3]triazolo[1,5-c]pyrimidin-1-yl)cyclohexanamine] |  | 0.76 |  | 0.015 |  |  |  |  | 0.063 | 0.75
FC(F)(F)c1nc2cc(NC[C@H]3CC[C@H](c4nnn5cnc6[nH]ccc6c45)CC3)ccc2[nH]1 [compound 175, N-{[trans-4-(7H-pyrrolo[3,2-e][1,2,3]triazolo[1,5-c]pyrimidin-1-yl)cyclohexyl]methyl}-2-(trifluoromethyl)-1H-benzo[d]imidazol-5-amine] |  |  |  |  | 0.0074 | 0.045 | 0.34 | 0.0056 |  | 
c1ccc(CN[C@H]2CC[C@H](c3nnn4cnc5[nH]ccc5c34)CC2)cc1 [194b, trans-N-benzyl-4-(7H-pyrrolo[3,2-e][1,2,3]triazolo[1,5-c]pyrimidin-1-yl)cyclohexanamine] |  |  |  |  | 0.046 | 0.11 | 0.5 | 0.0084 |  | 
N#Cc1ccc(CCN[C@H]2CC[C@H](c3nnn4cnc5[nH]ccc5c34)CC2)cc1 [391b, 4-(2-{[trans-4-(7H-pyrrolo[3,2-e][1,2,3]triazolo[1,5-c]pyrimidin-1-yl)cyclohexyl]amino}ethyl)benzonitrile] | 0.39 | 0.58 | > 1 | 0.018 |  |  |  |  |  | 
N#CCCN1CCN(C[C@H]2CC[C@H](c3nnn4cnc5[nH]ccc5c34)CC2)CC1 [compound 314, 3-(4-{[trans-4-(7H-pyrrolo[3,2-e][1,2,3]triazolo[1,5-c]pyrimidin-1-yl)cyclohexyl]methyl}piperazin-1-yl)propanenitrile] | 0.19 | 0.75 | > 1 | 0.008 |  |  |  |  |  | 
OC1(C(F)(F)F)CN(C[C@H]2CC[C@H](c3nnn4cnc5[nH]ccc5c34)CC2)C1 [compound 425, 1-{[trans-4-(7H-Pyrrolo[3,2-e][1,2,3]triazolo[1,5-c]pyrimidin-1-yl)cyclohexyl]methyl}-3-(trifluoromethyl)azetidin-3-ol] | 0.022 | 0.37 | 0.082 | 0.0025 |  |  |  |  |  | 
O=C(N[C@@H]1CCN(C[C@H]2CC[C@H](c3nnn4cnc5[nH]ccc5c34)CC2)C1)C(F)(F)F [compound 320, N-((R)-1-{[trans-4-(7H-pyrrolo[3,2-e][1,2,3]triazolo[1,5-c]pyrimidin-1-yl)cyclohexyl]methyl}pyrrolidin-3-yl)-2,2,2-trifluoroacetamide] | 0.057 | 0.86 | > 1 | 0.0076 |  |  |  |  |  | 
c1cc2c(ncn3nnc([C@H]4CC[C@H](CNC5CCCC5)CC4)c23)[nH]1 [compound 284, N-{[trans-4-(7H-pyrrolo[3,2-e][1,2,3]triazolo[1,5-c]pyrimidin-1-yl)cyclohexyl]methyl}cyclopentanamine] | 0.15 | 0.32 | > 1 | 0.017 |  |  |  |  |  | 
C[C@H](O)CNC[C@H]1CC[C@H](c2nnn3cnc4[nH]ccc4c23)CC1 [compound 184, (S)-1-({[trans-4-(7H-pyrrolo[3,2-e][1,2,3]triazolo[1,5-c]pyrimidin-1-yl)cyclohexyl]methyl}amino)propan-2-ol] |  |  |  |  | 0.042 | 0.087 | 0.58 | 0.0035 |  | 
FC(F)(F)C(F)(F)CNC[C@H]1CC[C@H](c2nnn3cnc4[nH]ccc4c23)CC1 [compound 342, N-{[trans-4-(7H-pyrrolo[3,2-e][1,2,3]triazolo[1,5-c]pyrimidin-1-yl)cyclohexyl]methyl}-2,2,3,3,3-pentafluoropropan-1-amine] | 0.034 | 0.35 | 0.13 | 0.0039 |  |  |  |  |  | 
FC(F)(F)C1CCN(C[C@H]2CC[C@H](c3nnn4cnc5[nH]ccc5c34)CC2)CC1 [compound 258, 1-(trans-4-{[4-(trifluoromethyl)piperidin-1-yl]methyl}cyclohexyl)-7H-pyrrolo[3,2-e][1,2,3]triazolo[1,5-c]pyrimidine] | 0.081 | 0.74 | > 1 | 0.012 |  |  |  |  |  | 
